The structures appear in SMILES notation.

The first test deals with THP-1 cells. As to the kind of experiment: THP-1 differentiation induction-promoting activity. Format: cell-based. The conditions noted are these: Homo sapiens, THP-1; lowest concentration necessary to show 50% activity relative to the activity value of erythromycin A at 100 μM; PMA 1-2 μM, 72-96 hr. As for the experimental part:
As one index of the anti-inflammatory action of the compound of the present invention, the differentiation induction-promoting activity of THP-1 cell was measured. The measurement was performed as shown below.
THP-1 cells (ATCC No. TIB-202) were adjusted to a concentration of 2×10^5 cells/ml with a medium (RPMI 1640), PMA was added thereto to a final concentration of 1-2 μM, and the mixture was dispensed to each well of a 96 well plate by 100 μl. A solution (100 μl) containing a test substance was adjusted to an appropriate concentration with the medium and added to each well. The mixture was stirred by gently shaking the plate, and incubated under 37° C., 5% CO2 conditions for 72-96 hr. Each well was washed with PBS, a medium containing the viable cell measurement reagent SF (Nacalai Tesque) was added at 100 μl/well and the mixture was incubated under the conditions of 37° C., 5% CO2 for 3-5 hr. The absorbance was measured with a plate reader.
In the Table, the activity value is the lowest concentration necessary for the test compound to show a 50% activity value relative to the activity value of erythromycin A at 100 μM in this experiment.
THP-1 differentiation induction-promoting activity: The lowest concentration necessary for each compound to show 50% activity relative to the activity value of erythromycin A at 100 μM.
As for `CC[C@@H](O)[C@@](C)(O)[C@@H]1OC(=O)[C@H](C)[C@@H](O[C@H]2CC(C)(OC)[C@@H](O)C(C)O2)[C@H](C)[C@@H](O[C@@H]2OC(C)CC(N(C)Cc3ccccc3)C2O)[C@@]2(C)CC(C)C(O2)[C@@H]1C` (stereo partly shown) [EM902, de(3′-N-methyl)-3′-N-benzyl-9-dihydro-pseudoerythromycin A 6,9-epoxide], the minimal effective concentration (commonly the smallest amount tested that counted as effective) turned out to be 30 µM.

`CC[C@@H](O)[C@@](C)(O)[C@@H]1OC(=O)[C@H](C)[C@@H](O[C@H]2CC(C)(OC)[C@@H](O)C(C)O2)[C@H](C)[C@@H](O[C@@H]2OC(C)CC(N)C2O)[C@]2(C)CC(C)C(O2)[C@@H]1C` (stereo partly shown) [EM903, bis-de(3′-N-methyl)-9-dihydro-pseudoerythromycin A 6,9-epoxide]: the minimal effective concentration amounted to 30 µM.

For `CC[C@@H](O)[C@@](C)(O)[C@@H]1OC(=O)[C@H](C)[C@@H](O[C@H]2CC(C)(OC)[C@@H](O)C(C)O2)[C@H](C)[C@@H](O[C@@H]2OC(C)CC(N(Cc3ccccc3)Cc3ccccc3)C2O)[C@@]2(C)CC(C)C(O2)[C@@H]1C` (stereo partly shown) [EM904, bis-de(3′-N-methyl)-bis-(3′-N-benzyl)-9-dihydro-pseudoerythromycin A 6,9-epoxide], the minimal effective concentration was determined as 10 µM.

As to `COC1(C)C[C@H](O[C@H]2[C@H](C)[C@@H](O[C@@H]3OC(C)CC(N(C)C)C3O)[C@]3(C)CC(C)C(O3)[C@H](C)[C@H](C(C)=O)OC(=O)[C@@H]2C)OC(C)[C@@H]1O` (stereo partly shown) [EM906, de[12-(1-hydroxypropyl)]-9-dihydro-12-oxo-pseudoerythromycin A 6,9-epoxide], the minimal effective concentration turned out to be 30 µM.

`COC1(C)C[C@H](O[C@H]2[C@H](C)[C@@H](O[C@@H]3OC(C)CC(N(C)C)C3O)[C@]3(C)CC(C)C(O3)[C@H](C)[C@H](C(C)O)OC(=O)[C@@H]2C)OC(C)[C@@H]1O` (stereo partly shown) [EM908, de[12-(1-hydroxypropyl)]-9-dihydro-pseudoerythromycin A 6,9-epoxide] showed a minimal effective concentration of 10 µM.

Take `CC[C@@H]1O[C@@]1(C)[C@@H]1OC(=O)[C@H](C)[C@@H](O[C@H]2CC(C)(OC)[C@@H](O)C(C)O2)[C@H](C)[C@@H](O[C@@H]2OC(C)CC(N(C)C)C2O)[C@]2(C)CC(C)C(O2)[C@@H]1C` (stereo partly shown) [EM909, 12,13-epoxy-9-dihydro-pseudoerythromycin A 6,9-epoxide]: the minimal effective concentration is 30 µM.

As to `CC[C@@H](O)[C@@](C)(O)[C@@H]1OC(=O)[C@H](C)[C@@H](O)[C@H](C)[C@@H](O[C@@H]2OC(C)CC(N(C)C)C2O)[C@]2(C)CC(C)C(O2)[C@@H]1C` (stereo partly shown) [EM910, de(3-O-cladinosyl)-9-dihydro-pseudoerythromycin A 6,9-epoxide], the minimal effective concentration worked out at 100 µM.

In the case of `CC[C@@H](OC(C)=O)[C@@](C)(O)[C@@H]1OC(=O)[C@H](C)[C@@H](O[C@H]2CC(C)(OC)C(OC(C)=O)C(C)O2)[C@H](C)[C@@H](O[C@@H]2OC(C)CC(N(C)C)C2O)[C@]2(C)CC(C)C(O2)[C@@H]1C` (stereo partly shown) [EM911, 4″,13-O-diacetyl-9-dihydro-pseudoerythromycin A 6,9-epoxide], the minimal effective concentration was 10 µM.

`CC[C@@H](O)[C@@](C)(O)[C@@H]1OC(=O)[C@H](C)[C@@H](O[C@H]2CC(C)(OC)[C@@H](O)C(C)O2)[C@H](C)[C@@H](O[C@@H]2OC(C)CC(N(C)C)C2OC(C)=O)[C@]2(C)CC(C)C(O2)[C@@H]1C` (stereo partly shown) [EM913, 2′-O-acetyl-9-dihydro-pseudoerythromycin A 6,9-epoxide]: the minimal effective concentration was found to be 30 µM.

As for `CC[C@H]1OC(=O)O[C@@]1(C)[C@@H]1OC(=O)[C@H](C)C(=O)[C@H](C)[C@@H](O[C@@H]2OC(C)CC(N(C)C)C2OC(C)=O)[C@]2(C)CC(C)C(O2)[C@@H]1C` (stereo partly shown) [EM917, 2′-O-acetyl-de(3-O-cladinosyl)-9-dihydro-3-keto-pseudoerythromycin A 6,9-epoxide 12,13-carbonate], the minimal effective concentration was 30 µM.

`CC[C@H]1OC(=O)O[C@@]1(C)[C@@H]1OC(=O)[C@H](C)C(=O)[C@H](C)[C@@H](O[C@@H]2OC(C)CC(N(C)C)C2O)[C@]2(C)CC(C)C(O2)[C@@H]1C` (stereo partly shown) [EM918, de(3-O-cladinosyl)-9-dihydro-3-keto-pseudoerythromycin A 6,9-epoxide 12,13-carbonate] displayed a minimal effective concentration of 30 µM.

Take `CC[C@@H](O)[C@@](C)(O)[C@@H]1OC(=O)[C@H](C)[C@@H](O)[C@H](C)[C@H](O[C@@H]2OC(C)CC(N(C)Cc3ccc(Cl)cc3)C2O)[C@@]2(C)CC(C)C(O2)[C@@H]1C` (stereo partly shown) [EM925, de(3′-N-methyl)-3′-N-(p-chlorobenzyl)-de(3-O-cladinosyl)-9-dihydro-pseudoerythromycin A 6,9-epoxide]: the minimal effective concentration was 30 µM.

As to `CC[C@H]1OC(=O)O[C@@]1(C)[C@@H]1OC(=O)[C@H](C)C(=O)[C@H](C)[C@@H](O[C@@H]2OC(C)CC(N3CCOCC3)C2OC(C)=O)[C@]2(C)CC(C)C(O2)[C@@H]1C` (stereo partly shown) [EM932, 2′-O-acetyl-de(3-O-cladinosyl)-9-dihydro-3-keto-de(3′-dimethylamino)-3′-morpholino-pseudoerythromycin A 6,9-epoxide 12,13-carbonate], the minimal effective concentration turned out to be 10 µM.

With `CC[C@H]1OC(=O)O[C@@]1(C)[C@@H]1OC(=O)[C@H](C)C(=O)[C@H](C)[C@@H](O[C@@H]2OC(C)CC(N3CCOCC3)C2O)[C@]2(C)CC(C)C(O2)[C@@H]1C` (stereo partly shown) [EM935, de(3-O-cladinosyl)-9-dihydro-3-keto-de(3′-dimethylamino)-3′-morpholino-pseudoerythromycin A 6,9-epoxide 12,13-carbonate], the minimal effective concentration was found to be 30 µM.

The compound `CC[C@H]1OC(=O)O[C@@]1(C)[C@@H]1OC(=O)[C@H](C)[C@@H](O)[C@H](C)[C@@H](O[C@@H]2OC(C)CC(N(C)C(=O)OCc3ccccc3)C2OC(=O)OCc2ccccc2)[C@]2(C)CC(C)C(O2)[C@@H]1C` (stereo partly shown) [EM936, de(3′-N-methyl)-2′-O-3′-N-bis(benzyloxycarbonyl)-de(3-O-cladinosyl)-9-dihydro-pseudoerythromycin A 6,9-epoxide 12,13-carbonate] had a minimal effective concentration of 10 µM.

Compound `CC[C@H]1OC(=O)O[C@@]1(C)[C@@H]1OC(=O)[C@H](C)[C@@H](O)[C@H](C)[C@@H](O[C@@H]2OC(C)CC(N3CCOCC3)C2O)[C@]2(C)CC(C)C(O2)[C@@H]1C` (stereo partly shown) [EM946, de(3-O-cladinosyl)-9-dihydro-de(3′-dimethylamino)-3′-morpholino-pseudoerythromycin A 6,9-epoxide 12,13-carbonate] came in with a minimal effective concentration of 100 µM.

In the case of `CC[C@H]1OC(C)(C)O[C@@]1(C)[C@@H]1OC(=O)[C@H](C)C(=O)[C@H](C)[C@@H](O[C@@H]2OC(C)CC(N(C)Cc3ccc(Cl)cc3)C2O)[C@]2(C)CC(C)C(O2)[C@@H]1C` (stereo partly shown) [EM947, de(3′-N-methyl)-3′-N-(p-chlorobenzyl)-de(3-O-cladinosyl)-9-dihydro-3-keto-pseudoerythromycin A 6,9-epoxide 12,13-isopropylidene Acetal], the minimal effective concentration came to 10 µM.

The compound `CC[C@@H](O)[C@@](C)(O)[C@@H]1OC(=O)[C@H](C)C(=O)[C@H](C)[C@H](O[C@@H]2OC(C)CC(N(C)Cc3ccc(Cl)cc3)C2O)[C@]2(C)CC(C)C(O2)[C@@H]1C` (stereo partly shown) [EM949, de(3′-N-methyl)-3′-N-(p-chlorobenzyl)-de(3-O-cladinosyl)-9-dihydro-3-keto-pseudoerythromycin A 6,9-epoxide] displayed a minimal effective concentration of 10 µM.

Still in this test, the particulars now being: lowest concentration necessary to show 50% activity relative to the activity value of erythromycin A at 100 μM; PMA 1-2 μM, 72-96 hr.
With `CO[C@]1(C)C[C@H](O[C@H]2[C@H](C)[C@@H](O[C@@H]3O[C@H](C)C[C@H](N(C)C)[C@H]3O)[C@@]3(C)C[C@@H](C)[C@H](O3)[C@H](C)[C@H](/C(C)=N/O)OC(=O)[C@@H]2C)O[C@@H](C)[C@@H]1O` [EM907, de[12-(1-hydroxypropyl)]-9-dihydro-12-hydroxyoxime-pseudoerythromycin A 6,9-epoxide], the “THP-1 differentiation induction-promoting activity” value is 30.
